Test results: patent publication US20260285850A1, “SUBSTITUTED OXAZOLIDINONES AND IMIDAZOLINONES AS HERBICIDES” (FMC CORPORATION, priority 2023, published 2026)

Legend:
Format in all cases: in vivo
[1] = tested on: barnyardgrass (Echinochloa crus-galli); assay: Test A preemergence soil spray, visual injury rating 0-100; conditions: 10 days, 0 = no effect, 100 = complete control
Method in brief: (§1)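 Compound in a non-phytotoxic, surfactant-containing solvent is applied either as a directed soil spray before seedlings emerge or onto emerged plants 2-10 cm tall; pots hold a loam-sand blend. Plants grow 10 days under greenhouse conditions and are rated by eye against untreated controls (0 no effect, 100 complete control).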

[2] = tested on: blackgrass (Alopecurus myosuroides); assay: as above; conditions: 10 days, 0 = no effect, 100 = complete control
Method in brief: as §1

corn (Zea mays) [3] = assay: as above; conditions: 10 days, 0 = no effect, 100 = complete control
Method in brief: as §1

[4] = tested on: green foxtail (Setaria viridis); assay: as above; conditions: 10 days, 0 = no effect, 100 = complete control
Method in brief: as §1

kochia (Bassia scoparia) [5] = assay: as above; conditions: 10 days, 0 = no effect, 100 = complete control
Method in brief: as §1

[6] = tested on: oat, wild (wild oat, Avena fatua); assay: as above; conditions: 10 days, 0 = no effect, 100 = complete control
Method in brief: as §1

[7] = tested on: palmer (palmer amaranth, palmer pigweed, Amaranthus palmeri); assay: as above; conditions: 10 days, 0 = no effect, 100 = complete control
Method in brief: as §1

[8] = tested on: ragweed (common ragweed, Ambrosia artemisiifolia); assay: as above; conditions: 10 days, 0 = no effect, 100 = complete control
Method in brief: as §1

[9] = tested on: ryegrass, Italian (italian ryegrass, Lolium multiflorum); assay: as above; conditions: 10 days, 0 = no effect, 100 = complete control
Method in brief: as §1

soybean (Glycine max) [10] = assay: as above; conditions: 10 days, 0 = no effect, 100 = complete control
Method in brief: as §1

[11] = tested on: wheat (Triticum aestivum); assay: as above; conditions: 10 days, 0 = no effect, 100 = complete control
Method in brief: as §1

[12] = tested on: barnyardgrass (Echinochloa crus-galli); assay: Test A postemergence application, visual injury rating 0-100; conditions: 10 days
Method in brief: as §1

[13] = tested on: blackgrass (Alopecurus myosuroides); assay: as above; conditions: 10 days
Method in brief: as §1

corn (Zea mays) [14] = assay: as above; conditions: 10 days
Method in brief: as §1

[15] = tested on: galium (catchweed bedstraw, Galium aparine); assay: as above; conditions: 10 days
Method in brief: as §1

[16] = tested on: green foxtail (Setaria viridis); assay: as above; conditions: 10 days
Method in brief: as §1

[17] = tested on: horseweed (Erigeron canadensis); assay: as above; conditions: 10 days
Method in brief: as §1

kochia (Bassia scoparia) [18] = assay: as above; conditions: 10 days
Method in brief: as §1

[19] = tested on: oat, wild (wild oat, Avena fatua); assay: as above; conditions: 10 days
Method in brief: as §1

[20] = tested on: palmer (palmer amaranth, palmer pigweed, Amaranthus palmeri); assay: as above; conditions: 10 days
Method in brief: as §1

[21] = tested on: ragweed (common ragweed, Ambrosia artemisiifolia); assay: as above; conditions: 10 days
Method in brief: as §1

[22] = tested on: ryegrass, Italian (italian ryegrass, Lolium multiflorum); assay: as above; conditions: 10 days
Method in brief: as §1

soybean (Glycine max) [23] = assay: as above; conditions: 10 days
Method in brief: as §1

[24] = tested on: wheat (Triticum aestivum); assay: as above; conditions: 10 days
Method in brief: as §1

[25] = tested on: barnyardgrass (Echinochloa crusgalli); assay: Test B flooded paddy test, visual plant response rating 0-100; conditions: 250 g ai/ha, Flood, applied to paddy water, evaluated after 13 days
Method in brief: (§2)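 Greenhouse, 13 d. Seedlings at 2-leaf stage, pots flooded to 3 cm, compound delivered into floodwater, water level held constant. Evaluated visually relative to controls.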

[26] = tested on: ducksalad (Heteranthera limosa); assay: as above; conditions: 250 g ai/ha, Flood, applied to paddy water, evaluated after 13 days
Method in brief: as §2

rice (Oryza sativa) = assay: as above; conditions: 250 g ai/ha, Flood, applied to paddy water, evaluated after 13 days
Method in brief: as §2

[27] = tested on: sedge, umbrella (small-flower umbrella sedge, Cyperus difformis); assay: as above; conditions: 250 g ai/ha, Flood, applied to paddy water, evaluated after 13 days
Method in brief: as §2

[28] = 31 g ai/ha, postemergence, 0 = no effect, 100 = complete control
[29] = Postemergence, 125 g ai/ha, 0 is no effect, 100 is complete control

Compound: CCOC(=O)COC(=O)C1C=CC(NC(=O)C2(C)CN(c3cc(F)cc(F)c3)C(=O)O2)C1 (stereo not shown) [Compound 53]
- Barnyardgrass plant response rating (0-100) ([1]; 31 g ai/ha): 30
- Barnyardgrass plant response rating (0 to 100 scale) ([1]; 125 g ai/ha): 100
- Blackgrass plant response rating (0-100) ([2]; 31 g ai/ha): 50
- Blackgrass plant response rating (0 to 100 scale) ([2]; 125 g ai/ha): 90
- Corn plant response rating (0-100) (corn (Zea mays) [3]; 31 g ai/ha): 0
- Corn plant response rating (0 to 100 scale) (corn (Zea mays) [3]; 125 g ai/ha): 60
- Foxtail, Green plant response rating (0-100) ([4]; 31 g ai/ha): 0
- Foxtail, Green plant response rating (0 to 100 scale) ([4]; 125 g ai/ha): 20
- Kochia plant response rating (0-100) (kochia (Bassia scoparia) [5]; 31 g ai/ha): 0
- Kochia plant response rating (0 to 100 scale) (kochia (Bassia scoparia) [5]; 125 g ai/ha): 90
- Oat, Wild plant response rating (0-100) ([6]; 31 g ai/ha): 50
- Oat, Wild plant response rating (0 to 100 scale) ([6]; 125 g ai/ha): 90
- Amaranth, Palmer plant response rating (0-100) ([7]; 31 g ai/ha): 30
- Amaranth, Palmer plant response rating (0 to 100 scale) ([7]; 125 g ai/ha): 60
- Ragweed plant response rating (0-100) ([8]; 31 g ai/ha): 0
- Ragweed plant response rating (0 to 100 scale) ([8]; 125 g ai/ha): 20
- Ryegrass, Italian plant response rating (0-100) ([9]; 31 g ai/ha): 70
- Ryegrass, Italian plant response rating (0 to 100 scale) ([9]; 125 g ai/ha): 100
- Soybean plant response rating (0-100) (soybean (Glycine max) [10]; 31 g ai/ha): 30
- Soybean plant response rating (0 to 100 scale) (soybean (Glycine max) [10]; 125 g ai/ha): 70
- Wheat plant response rating (0-100) ([11]; 31 g ai/ha): 70
- Wheat plant response rating (0 to 100 scale) ([11]; 125 g ai/ha): 90
- Barnyardgrass plant response rating (0-100) [12, 28]: 100
- Barnyardgrass plant response rating (0 to 100 scale) [12, 29]: 100
- Blackgrass plant response rating (0-100) [13, 28]: 70
- Blackgrass plant response rating (0 to 100 scale) [13, 29]: 80
- Corn plant response rating (0-100) (corn (Zea mays) [14]; [28]): 100
- Corn plant response rating (0 to 100 scale) (corn (Zea mays) [14]; [29]): 100
- Galium plant response rating (0-100) [15, 28]: 80
- Galium plant response rating (0 to 100 scale) [15, 29]: 80
- Foxtail, Green plant response rating (0-100) [16, 28]: 50
- Foxtail, Green plant response rating (0 to 100 scale) [16, 29]: 70
- Horseweed plant response rating (0-100) [17, 28]: 60
- Horseweed plant response rating (0 to 100 scale) [17, 29]: 70
- Kochia plant response rating (0-100) (kochia (Bassia scoparia) [18]; [28]): 80
- Kochia plant response rating (0 to 100 scale) (kochia (Bassia scoparia) [18]; [29]): 80
- Oat, Wild plant response rating (0-100) [19, 28]: 90
- Oat, Wild plant response rating (0 to 100 scale) [19, 29]: 90
- Amaranth, Palmer plant response rating (0-100) [20, 28]: 70
- Amaranth, Palmer / Pigweed, Palmer plant response rating (0 to 100 scale) [20, 29]: 90
- Ragweed plant response rating (0-100) [21, 28]: 50
- Ragweed plant response rating (0 to 100 scale) [21, 29]: 80
- Ryegrass, Italian plant response rating (0-100) [22, 28]: 90
- Ryegrass, Italian plant response rating (0 to 100 scale) [22, 29]: 90
- Soybean plant response rating (0-100) (soybean (Glycine max) [23]; [28]): 70
- Soybean plant response rating (0 to 100 scale) (soybean (Glycine max) [23]; [29]): 70
- Wheat plant response rating (0-100) [24, 28]: 90
- Wheat plant response rating (0 to 100 scale) [24, 29]: 90
- Plant response rating, Barnyardgrass (0 to 100 scale, 0 is no effect and 100 is complete control) [25]: 90
- Plant response rating, Ducksalad (0 to 100 scale, 0 is no effect and 100 is complete control) [26]: 90
- Plant response rating, Rice (0 to 100 scale, 0 is no effect and 100 is complete control) (rice (Oryza sativa)): 20
- Plant response rating, Sedge, Umbrella (0 to 100 scale, 0 is no effect and 100 is complete control) [27]: 60
